System: H. pylori
Assay: Antimicrobial activity test 6: oxethazaine in combination with an antibiotic (AMPC, CAM, RXM), checker board method
Assay type: cell-based, Helicobacter pylori
Set-up: key to growth of H. pylori: “−” indicates the inhibited growth of H. pylori (presence of antimicrobial activity); “+” indicates the growth of H. pylori (absence of antimicrobial activity)
Excerpt: The effect of combined use with amoxicillin (AMPC), clarithromycin (CAM) or roxithromycin (RXM) was examined in the same manner as in antimicrobial activity test 1, using the checker board method.

[1] = combined use with oxethazaine, out of 15 strains (AMPC), 21 strains (CAM), 22 strains (RXM)

Compound: CC[C@H]1OC(=O)[C@H](C)[C@@H](O[C@H]2C[C@@](C)(OC)[C@@H](O)[C@H](C)O2)[C@H](C)[C@@H](O[C@@H]2O[C@H](C)C[C@H](N(C)C)[C@H]2O)[C@](C)(OC)C[C@@H](C)C(=O)[C@H](C)[C@@H](O)[C@]1(C)O [clarithromycin]
- growth of H. pylori (89-355, oxethazaine 0 + CAM 0.006 μg/ml): +
- growth of H. pylori (89-355, oxethazaine 0 + CAM 0.012 μg/ml): +
- growth of H. pylori (89-355, oxethazaine 0 + CAM 0.024 μg/ml): +
- growth of H. pylori (89-355, oxethazaine 0 + CAM 0.05 μg/ml): +
- growth of H. pylori (89-355, oxethazaine 0 + CAM 0.1 μg/ml): −
- growth of H. pylori (89-355, oxethazaine 0 + CAM 0.2 μg/ml): −
- growth of H. pylori (89-355, oxethazaine 0 + CAM 0.4 μg/ml): −
- growth of H. pylori (89-355, oxethazaine 0 + CAM 0.8 μg/ml): −
- growth of H. pylori (89-355, oxethazaine 0 + CAM 1.56 μg/ml): −
- growth of H. pylori (89-355, oxethazaine 0 + CAM 3.13 μg/ml): −
- growth of H. pylori (89-355, oxethazaine 0 + CAM 6.25 μg/ml): −
- growth of H. pylori (89-355, oxethazaine 0 + CAM 12.5 μg/ml): −
- growth of H. pylori (89-355, oxethazaine 0 + CAM 25 μg/ml): −
- growth of H. pylori (89-355, oxethazaine 0 + CAM 50 μg/ml): −
- growth of H. pylori (89-355, oxethazaine 0 + CAM 100 μg/ml): −
- growth of H. pylori (89-357, oxethazaine 0 + CAM 0.006 μg/ml): +
- growth of H. pylori (89-357, oxethazaine 0 + CAM 0.012 μg/ml): +
- growth of H. pylori (89-357, oxethazaine 0 + CAM 0.024 μg/ml): +
- growth of H. pylori (89-357, oxethazaine 0 + CAM 0.05 μg/ml): −
- growth of H. pylori (89-357, oxethazaine 0 + CAM 0.1 μg/ml): −
- growth of H. pylori (89-357, oxethazaine 0 + CAM 0.2 μg/ml): −
- growth of H. pylori (89-357, oxethazaine 0 + CAM 0.4 μg/ml): −
- growth of H. pylori (89-357, oxethazaine 0 + CAM 0.8 μg/ml): −
- growth of H. pylori (89-357, oxethazaine 0 + CAM 1.56 μg/ml): −
- growth of H. pylori (89-357, oxethazaine 0 + CAM 3.13 μg/ml): −
- growth of H. pylori (89-357, oxethazaine 0 + CAM 6.25 μg/ml): −
- growth of H. pylori (89-357, oxethazaine 0 + CAM 12.5 μg/ml): −
- growth of H. pylori (89-357, oxethazaine 0 + CAM 25 μg/ml): −
- growth of H. pylori (89-357, oxethazaine 0 + CAM 50 μg/ml): −
- growth of H. pylori (89-357, oxethazaine 0 + CAM 100 μg/ml): −
- growth of H. pylori (90-388, oxethazaine 0 + CAM 0.006 μg/ml): +
- growth of H. pylori (90-388, oxethazaine 0 + CAM 0.012 μg/ml): +
- growth of H. pylori (90-388, oxethazaine 0 + CAM 0.024 μg/ml): +
- growth of H. pylori (90-388, oxethazaine 0 + CAM 0.05 μg/ml): +
- growth of H. pylori (90-388, oxethazaine 0 + CAM 0.1 μg/ml): −
- growth of H. pylori (90-388, oxethazaine 0 + CAM 0.2 μg/ml): −
- growth of H. pylori (90-388, oxethazaine 0 + CAM 0.4 μg/ml): −
- growth of H. pylori (90-388, oxethazaine 0 + CAM 0.8 μg/ml): −
- growth of H. pylori (90-388, oxethazaine 0 + CAM 1.56 μg/ml): −
- growth of H. pylori (90-388, oxethazaine 0 + CAM 3.13 μg/ml): −
- growth of H. pylori (90-388, oxethazaine 0 + CAM 6.25 μg/ml): −
- growth of H. pylori (90-388, oxethazaine 0 + CAM 12.5 μg/ml): −
- growth of H. pylori (90-388, oxethazaine 0 + CAM 25 μg/ml): −
- growth of H. pylori (90-388, oxethazaine 0 + CAM 50 μg/ml): −
- growth of H. pylori (90-388, oxethazaine 0 + CAM 100 μg/ml): −
- growth of H. pylori (90-390, oxethazaine 0 + CAM 0.006 μg/ml): +
- growth of H. pylori (90-390, oxethazaine 0 + CAM 0.012 μg/ml): +
- growth of H. pylori (90-390, oxethazaine 0 + CAM 0.024 μg/ml): +
- growth of H. pylori (90-390, oxethazaine 0 + CAM 0.05 μg/ml): +
- growth of H. pylori (90-390, oxethazaine 0 + CAM 0.1 μg/ml): −
- growth of H. pylori (90-390, oxethazaine 0 + CAM 0.2 μg/ml): −
- growth of H. pylori (90-390, oxethazaine 0 + CAM 0.4 μg/ml): −
- growth of H. pylori (90-390, oxethazaine 0 + CAM 0.8 μg/ml): −
- growth of H. pylori (90-390, oxethazaine 0 + CAM 1.56 μg/ml): −
- growth of H. pylori (90-390, oxethazaine 0 + CAM 3.13 μg/ml): −
- growth of H. pylori (90-390, oxethazaine 0 + CAM 6.25 μg/ml): −
- growth of H. pylori (90-390, oxethazaine 0 + CAM 12.5 μg/ml): −
- growth of H. pylori (90-390, oxethazaine 0 + CAM 25 μg/ml): −
- growth of H. pylori (90-390, oxethazaine 0 + CAM 50 μg/ml): −
- growth of H. pylori (90-390, oxethazaine 0 + CAM 100 μg/ml): −
- growth of H. pylori (EH 12, oxethazaine 0 + CAM 0.006 μg/ml): +
- growth of H. pylori (EH 12, oxethazaine 0 + CAM 0.012 μg/ml): +
- growth of H. pylori (EH 12, oxethazaine 0 + CAM 0.024 μg/ml): +
- growth of H. pylori (EH 12, oxethazaine 0 + CAM 0.05 μg/ml): −
- growth of H. pylori (EH 12, oxethazaine 0 + CAM 0.1 μg/ml): −
- growth of H. pylori (EH 12, oxethazaine 0 + CAM 0.2 μg/ml): −
- growth of H. pylori (EH 12, oxethazaine 0 + CAM 0.4 μg/ml): −
- growth of H. pylori (EH 12, oxethazaine 0 + CAM 0.8 μg/ml): −
- growth of H. pylori (EH 12, oxethazaine 0 + CAM 1.56 μg/ml): −
- growth of H. pylori (EH 12, oxethazaine 0 + CAM 3.13 μg/ml): −
- growth of H. pylori (EH 12, oxethazaine 0 + CAM 6.25 μg/ml): −
- growth of H. pylori (EH 12, oxethazaine 0 + CAM 12.5 μg/ml): −
- growth of H. pylori (EH 12, oxethazaine 0 + CAM 25 μg/ml): −
- growth of H. pylori (EH 12, oxethazaine 0 + CAM 50 μg/ml): −
- growth of H. pylori (EH 12, oxethazaine 0 + CAM 100 μg/ml): −
- growth of H. pylori (EH 13, oxethazaine 0 + CAM 0.006 μg/ml): +
- growth of H. pylori (EH 13, oxethazaine 0 + CAM 0.012 μg/ml): +
- growth of H. pylori (EH 13, oxethazaine 0 + CAM 0.024 μg/ml): −
- growth of H. pylori (EH 13, oxethazaine 0 + CAM 0.05 μg/ml): −
- growth of H. pylori (EH 13, oxethazaine 0 + CAM 0.1 μg/ml): −
- growth of H. pylori (EH 13, oxethazaine 0 + CAM 0.2 μg/ml): −
- growth of H. pylori (EH 13, oxethazaine 0 + CAM 0.4 μg/ml): −
- growth of H. pylori (EH 13, oxethazaine 0 + CAM 0.8 μg/ml): −
- growth of H. pylori (EH 13, oxethazaine 0 + CAM 1.56 μg/ml): −
- growth of H. pylori (EH 13, oxethazaine 0 + CAM 3.13 μg/ml): −
- growth of H. pylori (EH 13, oxethazaine 0 + CAM 6.25 μg/ml): −
- growth of H. pylori (EH 13, oxethazaine 0 + CAM 12.5 μg/ml): −
- growth of H. pylori (EH 13, oxethazaine 0 + CAM 25 μg/ml): −
- growth of H. pylori (EH 13, oxethazaine 0 + CAM 50 μg/ml): −
- growth of H. pylori (EH 13, oxethazaine 0 + CAM 100 μg/ml): −
- additive effect, number of strains [1]: 17 strains/
- synergism, number of strains [1]: 5 strains/
- growth of H. pylori (strain 90-397, CAM 0.006 μg/ml, oxethazaine μg/ml: 100, 50, 25, 12.5, 6.25, 3.13, 0): +
- growth of H. pylori (strain 90-397, CAM 0.012 μg/ml, oxethazaine μg/ml: 100, 50, 25, 12.5, 6.25, 3.13, 0): +
- growth of H. pylori (strain 90-397, CAM 0.024 μg/ml, oxethazaine μg/ml: 100, 50, 25, 12.5, 6.25, 3.13, 0): +
- growth of H. pylori (strain 90-397, CAM 0.05 μg/ml, oxethazaine μg/ml: 100, 50, 25, 12.5, 6.25, 3.13, 0): +
- growth of H. pylori (strain 90-397, CAM 0.1 μg/ml, oxethazaine μg/ml: 100, 50, 25, 12.5, 6.25, 3.13, 0): +
- growth of H. pylori (strain 90-397, CAM 0.2 μg/ml, oxethazaine μg/ml: 100, 50, 25, 12.5, 6.25, 3.13, 0): +
- growth of H. pylori (strain 90-397, CAM 12.5 μg/ml, oxethazaine μg/ml: 100, 50, 25, 12.5, 6.25, 3.13, 0): −
- growth of H. pylori (strain 90-397, CAM 25 μg/ml, oxethazaine μg/ml: 100, 50, 25, 12.5, 6.25, 3.13, 0): −
- growth of H. pylori (strain 90-397, CAM 50 μg/ml, oxethazaine μg/ml: 100, 50, 25, 12.5, 6.25, 3.13, 0): −
- growth of H. pylori (strain 90-397, CAM 100 μg/ml, oxethazaine μg/ml: 100, 50, 25, 12.5, 6.25, 3.13, 0): −

Reference: US6426369B1, “Oxethazaine as antimicrobial agent” (Eisai Co., Ltd., priority 1997, dated 2002)
